Test results published in patent publication US20240285541A1, “SHELF STABLE ORGANIC NUCLEOTIDE COMPOSITIONS AND METHODS OF MANUFACTURING THE SAME” (Glanbia Nutritionals, Inc., priority 2023, published 2024).

Assay: ATP stability over 362 days, processed under acidic and hot-fill conditions
Type: physicochemical
Conditions: acidic conditions (pH 2.8; b60 also says pH 2.5), hot-fill conditions
Text: FIG. 5 is a graphical representation 500 of the unexpectedly good results achieved through the method and composition described in connection with FIG. 4. Specifically, the graphical representation 500 illustrates a comparison of ATP stability for a composition or product of the disclosure (specifically, Formula A prepared according to method 400) compared against a control ATP product processed under acidic conditions (pH 2.5) and hot-fill conditions. The ATP stability measurements were calculated over three hundred sixty-two (362 days). For the control ATP, pH 2.8 (Δ), y=116.03e^−0.012x, R^2=0.966. For the encapsulated ATP Formula A, pH 2.8 (Δ), y=100.37e^−0.003x, R^2=0.9591.
Specifically, Formula A continued to comprise about 33.43 wt % of ATP 100, 200 at the end of the 362 days, compared with the 1.44 wt % of ATP 100, 200 in the control ATP solution.
FIG. 7 is a graphical representation 700 of the unexpectedly good results achieved through the method and composition described in connection with FIG. 6. Specifically, the graphical representation 700 illustrates a comparison of ATP stability for a composition or product of the disclosure (specifically, Formula B prepared according to method 600) compared against a control ATP product processed under acidic conditions (pH 2.8) and hot-fill conditions. ATP stability measurements were calculated over three hundred sixty-two (362) days. […]

## Nc1ncnc2c1ncn2[C@@H]1O[C@H](COP(=O)(O)OP(=O)([O-])OP(=O)([O-])O)[C@@H](O)[C@H]1O.[Na+].[Na+] [control ATP, adenosine triphosphate (ATP) disodium salt]
  ATP 100, 200 comprised at the end of the 362 days: 1.44 wt %
